This series is described as follows: Specific surface area of isolated ferric citrate. The conditions noted are these: vacuum dried at 30-40° C. The series is classed as physicochemical.

Structures can show the parent of a compound that is named as a salt.

As to `O=C1CC2(O)CC(=O)[O][Fe]([O]1)[O]C2=O` [Example-3, ferric citrate], the specific surface area result (Method B: two lots combined, sieve BSS 200/75 micron) is “above 16 sq. m/g”.

Turning to `O=C1CC2(O)CC(=O)[O][Fe]([O]1)[O]C2=O` [Ferric citrate, iron (+3), x (1,2,3-propanetricarboxylic acid, 2-hydroxy-), y (H2O)], the specific surface area result (Method A step c: acetone dumped in one lot, 20 mesh sieve) was “above 20 m^2/g”.

Values taken from patent US20210332073A1, “PROCESS FOR THE PREPARATION OF FERRIC CITRATE” (priority 2020, published 2021).
